Entries after “also recorded” stand apart in the source; their conditions may differ.
What was measured:
[1] = test system: oxazolone induced ear inflammation in mice; assay: Oxazolone induced mouse ear oedema assay; type: in vivo; details: for % inhibition of ear swelling: 24 hours after challenge; for inhibition of the formation of ear oedema: Example 7: 500 μg/ear dissolved in 96% ethanol
Procedure: This screening method is commonly employed for screening and evaluation of anti-inflammatory drugs, in particular with respect to the inflammation seen in contact dermatitis. Betamethasone-17 valerate was used as the positive control. […] Betamethasone was administered topically in quantities of 20 μg/ear. Betamethasone was applied in the commercial form Celeston valerate® 0.1%. All groups were immunised with 20 μl oxazolone, 1.6% in ethanol 96% (w/v) on the left and the right ear. The ear thickness of all mice on both the left and right side was measured with an electronic measuring gauge. All groups were challenged with 20 μl oxazolone (1.6% in ethanol 96% (w/v)) on the left ear and the right ear. Vehicle (acetone) or test article solutions were administered 20 minutes before and 20 minutes after oxazolone challenge. 24 hours after oxazolone challenge the ear thickness of all mice was measured with an electronic measuring gauge. Mean thickness of the ears and standard deviations were calculated. Ear swelling was calculated as the difference between the ear thickness day 7 and day 8. […] Differences in ear swelling between the vehicle treated group and the other groups were tested for significance employing a non-parametric statistical method of analysis, the Mann-Whitney U test. The required level of significance was p<0.05. […] Both test articles were applied in a dose of 500 μg/ear and dissolved in 96% ethanol. Betamethasone, as the positive control was administered topically in quantities of 20 μg/ear.

[2] = biological target: T1, Protein Tyrosine Kinase, ZA70 (ZAP-70) (Homo sapiens, UniProt P43403); assay: Protein Tyrosine Kinase ZA70 (ZAP-70) enzyme assay (MDS Pharma Service No. 155987); type: biochemical
T1 construct: purchased MDS Pharma Services (contract assay) 155987
T1 sequence (P43403 1-619): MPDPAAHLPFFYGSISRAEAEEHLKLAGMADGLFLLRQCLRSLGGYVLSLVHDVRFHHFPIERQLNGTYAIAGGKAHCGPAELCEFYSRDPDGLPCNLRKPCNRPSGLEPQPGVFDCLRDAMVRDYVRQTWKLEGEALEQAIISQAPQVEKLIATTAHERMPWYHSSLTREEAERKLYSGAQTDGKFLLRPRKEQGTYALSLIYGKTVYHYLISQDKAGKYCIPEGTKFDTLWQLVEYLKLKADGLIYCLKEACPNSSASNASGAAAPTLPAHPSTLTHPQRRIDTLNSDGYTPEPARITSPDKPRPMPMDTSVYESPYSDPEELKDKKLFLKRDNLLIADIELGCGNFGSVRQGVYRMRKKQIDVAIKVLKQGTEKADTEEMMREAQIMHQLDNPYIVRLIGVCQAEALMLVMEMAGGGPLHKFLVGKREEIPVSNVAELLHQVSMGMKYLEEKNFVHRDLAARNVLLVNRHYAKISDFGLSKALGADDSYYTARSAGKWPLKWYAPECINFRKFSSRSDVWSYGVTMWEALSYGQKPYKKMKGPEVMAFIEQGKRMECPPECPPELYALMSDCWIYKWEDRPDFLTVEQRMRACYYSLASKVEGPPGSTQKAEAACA
Procedure: (§1) The enzyme assays were conducted by MSD Pharma Services.

[3] = biological target: T2, Protein Tyrosine Kinase, SYK (Homo sapiens, UniProt P43405); assay: Protein Tyrosine Kinase SYK enzyme assay (MDS Pharma Service No. 155761); type: biochemical
T2 construct: purchased MDS Pharma Services (contract assay) 155761
Procedure: as §1

Phosphodiesterase PDE IV = Phosphodiesterase PDE IV enzyme assay (MDS Pharma Service No. 154000); type: biochemical
Procedure: as §1

skin = details: in vivo; cited from earlier work
guinea pig skin [4] = details: in vivo
Procedure: Test for skin sensitization is carried out according to the Magnusson and Kligman method (J. Invest. Dermatol. 1969. 52, 268-276) and in accordance with O.E.C.D. Guideline No. 406 of Jul. 17th, 1992, and the test method B.6 of the 96/54 E.E.C Directive.
Albino guinea pigs of Dunkin-Hartley strain were exposed to the test item after an acclimatisation period of at least five days.
The Maximum Non Necrotizing Concentration (M.N.N.C.) was determined by injecting by intradermal route the following concentrations: 2.5%, 1.25%, 0.625%, 0.3125%, 0.1562% and 0.078% diluted in physiological saline solution.
Pre-Maximum Non Irritant Concentration (pre-M.N.I.C.) was determined by application of the test item under an occlusive dressing during 24 hours, at the following concentrations: 2.5%, 1.25%, 0.625%, 0.3125% diluted in physiological saline solution.
Maximum Non Irritant Concentration (M.N.I.C.) was determined by initially establishing an induction phase by intradermal injection with a physiological saline solution and by topical application of distilled water followed by a 18-day rest phase. In the challenge phase where the test item is under occlusive dressing for 24 hours, the test item was applied to the skin of the Albino guinea pigs at the following concentrations: 2.5%, 1.25%, 0.625%, 0.3125% diluted in physiological saline solution.

[5] = 25° C.; cited from earlier work
[6] = biological target: T3, anandamide hydrolase (a fatty acid amide hydrolase) (Homo sapiens, UniProt O00519); details: in neurons; cited from earlier work
T3 construct: host or cells: neurons
T3 sequence (O00519 1-579): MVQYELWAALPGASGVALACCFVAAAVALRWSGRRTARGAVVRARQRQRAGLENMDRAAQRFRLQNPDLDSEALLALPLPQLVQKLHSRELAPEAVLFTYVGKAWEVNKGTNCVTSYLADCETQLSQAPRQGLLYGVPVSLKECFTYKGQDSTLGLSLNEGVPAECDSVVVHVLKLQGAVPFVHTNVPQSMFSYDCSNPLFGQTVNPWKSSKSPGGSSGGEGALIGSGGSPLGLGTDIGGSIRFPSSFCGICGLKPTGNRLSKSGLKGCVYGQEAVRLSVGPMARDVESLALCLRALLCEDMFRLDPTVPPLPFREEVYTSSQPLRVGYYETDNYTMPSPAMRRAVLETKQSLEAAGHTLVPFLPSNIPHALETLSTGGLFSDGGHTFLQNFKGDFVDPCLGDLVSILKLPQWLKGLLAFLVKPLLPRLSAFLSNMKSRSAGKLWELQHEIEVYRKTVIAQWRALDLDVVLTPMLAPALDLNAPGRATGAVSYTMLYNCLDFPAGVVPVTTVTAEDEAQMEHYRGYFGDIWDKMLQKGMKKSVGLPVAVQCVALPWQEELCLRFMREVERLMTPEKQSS

undamaged skin area = assay: Acute dermal irritation; type: in vivo; details: for cutaneous reactions (erythema and oedema): 0.5 mL patch
Procedure: The sample was applied at a dose of 0.5 mL, on an undamaged skin area of the right flank of each animal. The patch was secured in position with a strip of surgical adhesive tape.
On the left flank an untreated area served as the control.
The skin reactions were evaluated after 1 hour and then after 24, 48 and 72 hours following removal of the patch according to the following grading scale:
Erythema (0: No erythema, 1: Slight (barely perceptible) erythema, 2: Definite erythema, 3: Moderate to severe erythema, 4: Severe erythema (purple) with formation of eschars (deep lesions) preventing erythema from being grading).
Oedema (0: No oedema, 1: Very slight (barely perceptible) oedema, 2: Slight oedema (contour clearly defined), 3: Moderate oedema (thickness), 4: Severe oedema (thickness greater than 1 mm, surface larger than zone of application)

guinea pig skin [7] = details: in vivo; remark: listed apart in the source
Procedure: Test for photo toxicity is carried out to evaluate the risk of cutaneous reactions on the guinea pig following exposure to ultraviolet radiation.
Thirty minutes after the treatment, the animals were subjected to ultraviolet radiations (UV-B first and then UV-A).
The animals were irradiated with the irradiation source VLX 3W (Biotronic, Vilbert Lourmat) at the Maximal Non Erythemateous Dose (M.N.E.D) 7000 J/cm2 for UV-A and 150 mJ/cm2 for the UV-B.
A macroscopic evaluation of the cutaneous reactions (erythema and oedema) was conducted 24 and 48 hours after irradiation.

NF-kappaB activation = details: in inflammatory cells; cited from earlier work
activated monocytes = details: cited from earlier work
[8] = test system: inflammation following treatment with cryotherapy; details: topical; moderate to severe inflammation following cryotherapy; cited from earlier work
human skin inflammation = details: topical treatment; cited from earlier work
[9] = test system: chronic stable plaque psoriasis; details: topical 1%; cited from earlier work
contact dermatitis = details: topically applied; cited from earlier work
[10] = Oxaprozin as the monoethanolamine salt
[11] = monoethanolamine salt 5% by weight in water

With `CCCCC(=O)O[C@]1(C(=O)CO)[C@@H](C)C[C@H]2[C@@H]3CCC4=CC(=O)C=C[C@]4(C)[C@@]3(F)[C@@H](O)C[C@@]21C` [Betamethasone 17-valerate] the “% inhibition of ear swelling” value ([1]; 20 μg/ear topical (Celeston valerate 0.1%)) was 66%.
With `CCCCOc1ccc(CC(=O)NO)cc1` [Bufexamac] the “inhibitory effect on Protein Tyrosine Kinase ZAP-70” value [2] was “only exhibits inhibitory effect on the PDE-IV enzyme”, the “inhibitory effect on Protein Tyrosine Kinase SYK” value [3] was “only exhibits inhibitory effect on the PDE-IV enzyme” and the “inhibitory effect on the PDE-IV enzyme” value (Phosphodiesterase PDE IV) was “exhibits inhibitory effect”. The cutaneous side effects (skin) was “reported to cause contact allergy; also recorded: major contact allergens” and the “inhibition of the formation of ear oedema” value [1] was “did not inhibit the formation of ear oedema at all”.
In the case of `O=C(O)Cc1ccccc1Nc1c(Cl)cccc1Cl` [Diclofenac], the cutaneous side effects (skin) is given as “irritant-type contact dermatitis may develop”.
For `CC(C(=O)O)c1cccc(C(=O)c2ccccc2)c1` (stereo not shown) [Ketoprofen], the cutaneous side effects (skin) is given as “major contact allergens”.
With `O=C(O)CCc1nc(-c2ccccc2)c(-c2ccccc2)o1` [Monoethanolamine Oxaprozin] the IC50 [2, 10] was 38 µM, the skin sensitization (guinea pig skin [4]) was “not causing sensitization reactions” and the IC50 [3, 10] was 28 µM. The IC50 (Phosphodiesterase PDE IV; [10]) was 22 µM, the “% inhibition of ear swelling” value ([1]; 250 μg/ear topical in acetone, 20 min before and after challenge) was 53% and the “% inhibition of ear swelling” value ([1]; 500 μg/ear topical in acetone, 20 min before and after challenge) was 77%. The “% inhibition of ear swelling” value ([1]; 1000 μg/ear topical in acetone, 20 min before and after challenge) was 95%, the “inhibition of ear swelling (in words)” value ([1]; 250-1000 μg/ear) was “dose dependent and highly significant inhibition of ear swelling” and the “inhibition of ear swelling compared with positive control” value ([1]; highest dose (1000 μg/ear) vs Betamethasone 17-valerate 20 μg/ear) was “significantly stronger than the inhibition obtained with Betamethasone 17-valerate”.
For `O=C(O)CCc1nc(-c2ccccc2)c(-c2ccccc2)o1` [Oxaprozin, 4,5-diphenyl-2-oxazole-propionic acid], the solubility in water [5] is listed as “about 1.7 mg/ml”, the “inhibition of anandamide hydrolase” value [6] is listed as “inhibits” and the “cutaneous reactions (erythema and oedema)” value (undamaged skin area; monoethanolamine salt 2.5% by weight in water, 1, 24, 48, 72 hours) is listed as “no cutaneous reactions (erythema and oedema) were observed”. The reversibility of erythema (undamaged skin area; [11]) was “totally reversible between the 2nd and the 3rd day of the test”, the “cutaneous reactions (erythema and oedema)” value (undamaged skin area; [11]) was “only a slight erythema on the treated area at the reading time 1 hour” and the photo toxicity (guinea pig skin [7]) was “not phototoxic”. The “inhibition of the formation of ear oedema” value [1] was “statistically significant inhibition of the formation of ear oedema”, the “inhibition of NF-kappaB activation” value (NF-kappaB activation) was “inhibits” and the “apoptosis of activated monocytes” value (activated monocytes) was “induces apoptosis of activated monocytes in a dose-dependent manner”.
For `CC(=O)Oc1ccccc1C(=O)O` [aspirin], the cutaneous side effects (skin) is given as “may induce urticarial reactions”.
For `CCC(=O)O[C@]1(C(=O)CCl)[C@@H](C)C[C@H]2[C@@H]3CCC4=CC(=O)C=C[C@]4(C)[C@@]3(F)[C@@H](O)C[C@@]21C` [clobetasol propionate], the “relief of erythema and oedema” value [8] is listed as “proved to have effect”.
For `CC(C(=O)O)c1ccc(-c2ccccc2)c(F)c1` (stereo not shown) [flubiprofen], the “effect on human skin inflammation” value (human skin inflammation) is listed as “reduces human skin inflammation”.
In the case of `COc1ccc2c(c1)c(CC(=O)O)c(C)n2C(=O)c1ccc(Cl)cc1` [indomethacin], the “effect on chronic stable plaque psoriasis” value [9] is listed as “no effect”, the cutaneous side effects (skin) is listed as “may induce urticarial reactions” and the “relief of erythema and oedema” value [8] is listed as “poor effect in relieving the erythema and oedema”. For the same molecule, the “response in animal model of contact dermatitis” value (contact dermatitis) was “shown to respond”.
For `CN1C(C(=O)Nc2ccccn2)=C(O)c2ccccc2S1(=O)=O` [piroxicam], the cutaneous side effects (skin) is listed as “can lead to phototoxic or photo allergic dermatitis”.

Reference: patent US20060222671A1, “Dermatological compositions and salts for the treatment of dermatological diseases” (Astion Development A/S, priority 2005, published 2006)
